Experimental data published in PubChem BioAssay AID2060616 (Molecular Pharmacology Branch, DTP, NCI, 2025).
“And” between values parts separate entries of the source, which are not always exact repeats. Identical values can stand only once.

System: 377384-186-R-J1-PDC complex spheroid viability
Assay: Anticancer human tumor 377384-186-R-J1-PDC patient-derived pancreatic carcinoma cell line growth inhibition [CLK]
Settings: for viability, T/C: stronger effect = lower value; active means viability on the fitted dose curve at most 10% of control; inactive means the rest
Outline: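 Multi-cell-type spheroids combined patient-derived tumor cells with HUVEC endothelial cells and human mesenchymal stem cells. Paired agents were dosed in half-log steps down from about clinical Cmax, or from 10 microM where Cmax was unknown.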

[1] = curve of first compound, second compound 0.0316 µM
[2] = curve of first compound, second compound 0.1 µM
[3] = curve of first compound, second compound 0.316 µM
[4] = curve of first compound, second compound 1 µM
[5] = curve of first compound, second compound 3.16 µM
[6] = curve of first compound, second compound 10 µM
[7] = second compound 0.0316 µM, first compound 0.0316 µM
[8] = second compound 0.0316 µM, first compound 0.1 µM
[9] = second compound 0.0316 µM, first compound 0.316 µM
[10] = second compound 0.0316 µM, first compound 1 µM
[11] = second compound 0.0316 µM, first compound 3.16 µM
[12] = second compound 0.0316 µM, first compound 10 µM
[13] = second compound 0.1 µM, first compound 0.0316 µM
[14] = second compound 0.1 µM, first compound 0.1 µM
[15] = second compound 0.1 µM, first compound 0.316 µM
[16] = second compound 0.1 µM, first compound 1 µM
[17] = second compound 0.1 µM, first compound 3.16 µM
[18] = second compound 0.1 µM, first compound 10 µM
[19] = second compound 0.316 µM, first compound 0.0316 µM
[20] = second compound 0.316 µM, first compound 0.1 µM
[21] = second compound 0.316 µM, first compound 0.316 µM
[22] = second compound 0.316 µM, first compound 1 µM
[23] = second compound 0.316 µM, first compound 3.16 µM
[24] = second compound 0.316 µM, first compound 10 µM
[25] = second compound 1 µM, first compound 0.0316 µM
[26] = second compound 1 µM, first compound 0.1 µM
[27] = second compound 1 µM, first compound 0.316 µM
[28] = second compound 1 µM, first compound 1 µM
[29] = second compound 1 µM, first compound 3.16 µM
[30] = second compound 1 µM, first compound 10 µM
[31] = second compound 3.16 µM, first compound 0.0316 µM
[32] = second compound 3.16 µM, first compound 0.1 µM
[33] = second compound 3.16 µM, first compound 0.316 µM
[34] = second compound 3.16 µM, first compound 1 µM
[35] = second compound 3.16 µM, first compound 3.16 µM
[36] = second compound 3.16 µM, first compound 10 µM
[37] = second compound 10 µM, first compound 0.0316 µM
[38] = second compound 10 µM, first compound 0.1 µM
[39] = second compound 10 µM, first compound 0.316 µM
[40] = second compound 10 µM, first compound 1 µM
[41] = second compound 10 µM, first compound 3.16 µM
[42] = second compound 10 µM, first compound 10 µM
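Further: spheroids exposed to agents for 7 days before reading.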
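Wherever viability, T/C is given: luminescence signal used as a stand-in for viable cells.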

COc1cccc2c1C(=O)c1c(O)c3c(c(O)c1C2=O)CC(O)(C(=O)CO)CC3OC1CC(N)C(O)C(C)O1 (configuration not stated) + CNC(=O)c1ccc(Nc2nc(OC3CCCC3)c3c(-c4ccc5nc(C)oc5c4)c[nH]c3n2)c(OC)c1
active: viability, T/C [7] 10.2% | viability, T/C [8] 4.37% | viability, T/C [9] 1.55% | viability, T/C [10] 0.38% | viability, T/C [11] 3.07% | viability, T/C [12] 5.83% | viability, T/C [13] 9.1% | viability, T/C [14] 3.91% | viability, T/C [15] 1.38% | viability, T/C [16] 0.45% | viability, T/C [17] 3.75% | viability, T/C [18] 7.17% | viability, T/C [19] 9.14% | viability, T/C [20] 3.32% | viability, T/C [21] 1.45% | viability, T/C [22] 0.82% | viability, T/C [23] 4.73% | viability, T/C [24] 9.99% | viability, T/C [25] 7.32% | viability, T/C [26] 2.1% | viability, T/C [27] 0.65% | viability, T/C [28] 0.52% | viability, T/C [29] 3.63% | viability, T/C [30] 11.6% | viability, T/C [31] 9.23% | viability, T/C [32] 1.54% | viability, T/C [33] 0.4% | viability, T/C [34] 0.63% | viability, T/C [35] 5.3% | viability, T/C [36] 7.54% | viability, T/C [37] 7.12% | viability, T/C [38] 2.27% | viability, T/C [39] 0.51% | viability, T/C [40] 1.07% | viability, T/C [41] 5.51% | viability, T/C [42] 9.57%
< 31.6 nM: IC50 [1] | IC50 [2] | IC50 [3] | IC50 [4] | IC50 [5] | IC50 [6]

C=CC(=O)N1CCN(c2nc(=O)n(-c3c(C)ccnc3C(C)C)c3nc(-c4c(O)cccc4F)c(F)cc23)C(C)C1 (configuration not stated) + CNC(=O)c1ccc(Nc2nc(OC3CCCC3)c3c(-c4ccc5nc(C)oc5c4)c[nH]c3n2)c(OC)c1
2760 nM: IC50 [2]
< 31.6 nM: IC50 [3] | IC50 [4] | IC50 [5] | IC50 [6]
inactive: viability, T/C [7] 108% | viability, T/C [8] 111% | viability, T/C [9] 99.1% | viability, T/C [10] 111% | viability, T/C [11] 116% | viability, T/C [12] 91.7% | viability, T/C [13] 62.5% | viability, T/C [14] 64.7% | viability, T/C [15] 56.4% | viability, T/C [16] 68.6% | viability, T/C [17] 48.3% | viability, T/C [18] 36% | viability, T/C [19] 22.9% | viability, T/C [20] 18.9% | viability, T/C [21] 20.5% | viability, T/C [22] 25% | viability, T/C [23] 24% | viability, T/C [24] 21.4% | viability, T/C [25] 20.2% | viability, T/C [26] 20.1% | viability, T/C [27] 18.3% | viability, T/C [28] 21.3% | viability, T/C [29] 23.1% | viability, T/C [30] 21.5% | viability, T/C [31] 23.6% | viability, T/C [32] 23.5% | viability, T/C [33] 22% | viability, T/C [34] 24.5% | viability, T/C [35] 26.1% | viability, T/C [36] 23.1% | viability, T/C [37] 18.7% | viability, T/C [38] 18.3% | viability, T/C [39] 18.4% | viability, T/C [40] 20.3% | viability, T/C [41] 23.8% | viability, T/C [42] 19.7%
> 10000 nM: IC50 [1]

CC(C)CC(NC(=O)C(Cc1ccccc1)NC(=O)c1cnccn1)B(O)O (configuration not stated)
inactive: viability, T/C (compound 0.000949 µM) 76.6% and 65.6%
active: viability, T/C (compound 0.003 µM) 1.85% and 2.08% | viability, T/C (compound 0.00949 µM) 0.32% and 0.23% | viability, T/C (compound 0.03 µM) 0.26% and 0.38% | viability, T/C (compound 0.0949 µM) 0.18% and 0.14% | viability, T/C (compound 0.3 µM) 0.78% and 0.14%
1.43 nM and 1.26 nM: IC50 (curve of compound)

CC1COCCN1c1cc(C2(S(C)(=N)=O)CC2)nc(-c2ccnc3[nH]ccc23)n1 (configuration not stated) + CN1CCN(c2cc(C(=O)Nc3cc4cc(-c5cnn(C)c5)ccc4cn3)ccn2)CC1
active: viability, T/C [25] 1.04% | viability, T/C [26] 1.24% | viability, T/C [27] 1.39% | viability, T/C [28] 1.11% | viability, T/C [29] 0.85% | viability, T/C [30] 0.48% | viability, T/C [31] 0.45% | viability, T/C [32] 0.34% | viability, T/C [33] 0.48% | viability, T/C [34] 0.44% | viability, T/C [35] 0.69% | viability, T/C [36] 0.65% | viability, T/C [37] 0.51% | viability, T/C [38] 0.45% | viability, T/C [39] 1.23% | viability, T/C [40] 0.54% | viability, T/C [41] 1.37% | viability, T/C [42] 0.58%
inactive: viability, T/C [7] 97.6% | viability, T/C [8] 102% | viability, T/C [9] 97.8% | viability, T/C [10] 77.3% | viability, T/C [11] 36.7% | viability, T/C [12] 19.1% | viability, T/C [13] 110% | viability, T/C [14] 108% | viability, T/C [15] 95.5% | viability, T/C [16] 69.1% | viability, T/C [17] 33.1% | viability, T/C [18] 17.2% | viability, T/C [19] 27% | viability, T/C [20] 32% | viability, T/C [21] 24.1% | viability, T/C [22] 24.8% | viability, T/C [23] 14.1% | viability, T/C [24] 9.42%
< 31.6 nM: IC50 [3] | IC50 [4] | IC50 [5] | IC50 [6]
2160 nM: IC50 [1]
1840 nM: IC50 [2]

COC1C=CCC(C)C(C)S(=O)(=O)NC(=O)c2ccc3c(c2)N(CC2CCC21)CC1(CCCc2cc(Cl)ccc21)CO3 (configuration not stated) + CN1CCN(c2cc(C(=O)Nc3cc4cc(-c5cnn(C)c5)ccc4cn3)ccn2)CC1
inactive: viability, T/C [7] 114% | viability, T/C [8] 95.2% | viability, T/C [9] 96.5% | viability, T/C [10] 102% | viability, T/C [11] 84.9% | viability, T/C [12] 11.8% | viability, T/C [13] 115% | viability, T/C [14] 69.2% | viability, T/C [15] 98% | viability, T/C [16] 84.5% | viability, T/C [17] 76.8% | viability, T/C [18] 10.2% | viability, T/C [19] 32.5% | viability, T/C [20] 20.9% | viability, T/C [21] 24.3% | viability, T/C [22] 20% | viability, T/C [23] 20.5%
< 31.6 nM: IC50 [3] | IC50 [4] | IC50 [5] | IC50 [6]
active: viability, T/C [24] 3.02% | viability, T/C [25] 0.47% | viability, T/C [26] 1.66% | viability, T/C [27] 1.4% | viability, T/C [28] 1.15% | viability, T/C [29] 0.84% | viability, T/C [30] 0.75% | viability, T/C [31] 0.58% | viability, T/C [32] 0.33% | viability, T/C [33] 0.31% | viability, T/C [34] 0.37% | viability, T/C [35] 0.49% | viability, T/C [36] 0.39% | viability, T/C [37] 0.42% | viability, T/C [38] 0.68% | viability, T/C [39] 0.44% | viability, T/C [40] 0.59% | viability, T/C [41] 0.53% | viability, T/C [42] 0.17%
5480 nM: IC50 [1]
4950 nM: IC50 [2]

COc1cccc2c1C(=O)c1c(O)c3c(c(O)c1C2=O)CC(O)(C(=O)CO)CC3OC1CC(N)C(O)C(C)O1 (configuration not stated)
active: viability, T/C (compound 0.1 µM) 7.59% and 5.12% | viability, T/C (compound 0.316 µM) 1.88% and 1.98% | viability, T/C (compound 1 µM) 0.76% and 0.47% | viability, T/C (compound 3.16 µM) 3.8% and 3.34% | viability, T/C (compound 10 µM) 8.38% and 5.34%
< 31.6 nM: IC50 (curve of compound)
12.5% and 9.59%: viability, T/C (compound 0.0316 µM)
